Reference: patent publication US8207142B2, “Inhibitor of DNA methylation” (priority 2001, dated 2012)
“And” between values parts separate entries of the source, which are not always exact repeats. Equal entries are not always repeated.

Tests used:
T24 cells = assay: Colony-formation assay (decrease in plating efficiency) in T24 cells; format: cell-based, human
Procedure: (§1) The percentage cell survival was assessed by dividing the mean colony number on the treated plates divided by the mean colony number on the untreated plates ×100.

silenced hph gene = assay: Plate assay, reactivation of the methylation-silenced hph gene (hygromycin resistance), strain N644; format: cell-based, Neurospora crassa; details: 2.5-400 nmoles on paper disc
Procedure: FIG. 5 is a series of photographs of plate assays, showing reactivation of the silenced hph gene in Neurospora crassa by Zebularine. N. crassa strain N644 has a single copy of the E. coli hph gene that was silenced by cytosine methylation. The active hph gene confers hygromycin resistance.
Treatments are indicated above each plate; the listed compound was applied to the paper discs in the middle of each plate. With the exception of the “no hygromycin” plate, all plates had 5 mg hygromycin B added in a 5 ml 0.7% agar overlay after 24 hours growth at 32° C. The plates were then incubated an additional two days at the same temperature and photographed.
Plate tests were performed with solidified medium essentially as previously described (Selker, Proc. Natl. Acad. Sci. USA 95;9430-9435, 1998). In brief, approximately 2,000 N. crassa conidia of the indicated were plated on each plate. Drugs were administered from a 4-mm diameter Whatman™ no. 1 paper disk placed in the middle of each plate shortly after plating.
N. crassa was used to quantitatively examine the effectiveness of Zebularine at reducing or reversing methylation (Selker, Proc. Natl. Acad. Sci. USA, 95:9430-9435, 1998). […]

10T1/2 cells [1] = assay: Induction of a myogenic phenotype (myotube formation) in 10T1/2 cells; format: cell-based, mouse; set-up: key to Muscle Formation: + representing minimal muscle formation; scored for muscle cells 9-10 days later as + to +++; +++ representing maximal muscle formation; details: for Muscle Formation: 24 hours treatment, scored 9-10 days later; for muscle formation (micrographs, in words): 10T1/2 cells, approximately 9-10 days after drug treatment
Procedure: Cells were plated (3×10^5 cells/100-mm dish) and treated 24 hours later with the indicated concentrations of compounds. The medium was either changed 24 hours or 48 hours after drug treatment. Myotube formation was assayed in 10T1/2 cells as previously described (Constantinides et al., Nature 267:364-366, 1977). […] The ability of Zebularine to cause 10T1/2 cells to undergo the myogenic switch was therefore tested (FIG. 7).

10T1/2 cells [2] = assay: Colony-formation assay (plating efficiency) in 10T1/2 cells; format: cell-based, mouse; details: for Ave. Plating Efficiency (%): 250 cells, stained after 14-16 days, control 22; for decrease in plating deficiency (cytotoxicity) / cell death observed: 10T1/2 cells; for cell death observed: 0.3 μM 5-Aza-CdR, 3 μM 5-Aza-CR, 30 μM Zebularine
Procedure: as §1

p16 exon 2 = assay: Ms-SNuPE quantitation of DNA methylation in T24 cells, p16 exon 2; format: cell-based, human; details: for p16 Exon 2 Methylation (%): control 96
Procedure: (§2) The average methylation at defined CpG sites was quantitated using a Ms-SNuPE assay, as described by Gonzalgo and Jones (Nucleic Acids Res. 25:2529-2531, 1997) and U.S. Pat. No. 6,251,594. Briefly, genomic DNA (˜4 μg) was digested overnight with 4 units of EcoRI (Boehringer Mannheim) (p16 promoter/exon 1 and p16 exon 2; FIG. 9A) or with 4 units of RsaI (Boehringer Mannheim) (P3; FIG. 9B) to cut outside the region of interest.
(§3) After standard treatment with sodium bisulfite, a PCR product of the region was generated as template for top-strand methylation analysis. The sequences of the primers used for bisulfite-treated DNA amplification were as follows: […]
p16 exon 2: 94° C. for 3 minutes, 94° C. for 1 minute, 62° C. for 45 seconds, and 72° C. for 45 seconds for 40 cycles, with a final extension step at 72° C. for 10 minutes.
(§4) Duplicates of 4 μl of template were then added to 6 μl of mixture consisting of 1× PCR buffer, 1 μM final concentration primers, 1 μCi of [^32P]dCTP or dTTP, and 1 unit 1:1 Taq/TaqStart antibody (Clontech, Palo Alto, Calif.). Single nucleotide extension involved incubation at 95° C. for 1 minute, then 50° C. for 2 minutes, and finally 72° C. for 1 minute (p16 promoter/exon1 and P16 exon 2) and 95° C. for 1 minute, then 46° C. for 30 seconds, and finally 72° C. for 20 seconds (P3). The sequences for SNuPE primers were as follows: […]
(§5) After briefly spinning down the tubes, 4 μl of stop solution were added to the 10-μl reaction volume, and the samples were boiled for 5 minutes at 95° C. before loading 1.5 μl onto a 15% denaturing polyacrylamide gel (7 M urea). The gel was run at 90 W for 1.5 hours and then dried at 80° C. for 40 minutes. The gel was exposed to a phosphorimaging cassette for quantitation of the ratio of [^32P]dCTP versus [^32P]dTTP incorporation, and the quantitation of the percent methylation was averaged from three separate CpG sites. The gel was then exposed to BioMax MR film (Kodak) to record experimental results.

p16 promoter = assay: Ms-SNuPE quantitation of DNA methylation in T24 cells, p16 promoter; format: cell-based, human; details: control 96
Procedure: as §2, §3
p16 promoter/exon 1: 94° C. for 3 minutes, 94° C. for 45 seconds, 67° C. for 45 seconds, and 72° C. for 45 seconds for 40 cycles, with a final extension step at 72° C. for 10 minutes.
as §4, §5

For `O=c1ncccn1[C@@H]1O[C@H](CO)[C@@H](O)[C@H]1O` [Zebularine, 1-β-ribofuranosyl-1,2-dihydropyrimidin-2-one], the “Toxicity (%) (decrease in plating efficiency)” value (T24 cells; 300 μM, 24 hrs) was 1%, the “Toxicity (%) (decrease in plating efficiency)” value (T24 cells; 300 μM, 48 hrs) was 2% and the “Toxicity (%) (decrease in plating efficiency)” value (T24 cells; 500 μM, 24 hrs) was 7%. For the same compound, the “Toxicity (%) (decrease in plating efficiency)” value (T24 cells; 500 μM, 48 hrs) was 8%, the “Toxicity (%) (decrease in plating efficiency)” value (T24 cells; 1000 μM (1 mM), 48 hrs) was 23% and the “Toxicity (%) (decrease in plating efficiency)” value (T24 cells; 1000 μM, 24 hrs) was 18%. The “reactivation of silenced hph gene (conidia growth on hygromycin)” value (silenced hph gene) was “reactivate the hph gene”, the “Muscle Formation” value (10T1/2 cells [1]; 10 μM) was “+” and the “Muscle Formation” value (10T1/2 cells [1]; 30 μM) was “++”. For the same compound, the “muscle formation (micrographs, in words)” value (10T1/2 cells [1]) was “induced muscle formation in 10T1/2 cells”, the “Ave. Plating Efficiency (%)” value (10T1/2 cells [2]; 10 μM) was 20% and the “Ave. Plating Efficiency (%)” value (10T1/2 cells [2]; 30 μM) was 18%. The “decrease in plating deficiency (cytotoxicity)” value (10T1/2 cells [2]) was 17%, the cell death observed (10T1/2 cells [2]) was “only very little cell death” and the “Relative p16 Exon 2 De-methylation (%)” value (p16 exon 2; 300 μM, 24 hrs) was 7 +/− 1%. The “p16 Exon 2 Methylation (%)” value (p16 exon 2; 300 μM, 24 hrs) was 89 +/− 1%, the “Relative p16 Exon 2 De-methylation (%)” value (p16 exon 2; 300 μM, 48 hrs) was 16 +/− 2% and the “p16 Exon 2 Methylation (%)” value (p16 exon 2; 300 μM, 48 hrs) was 81 +/− 2%. For the same compound, the “Relative p16 Exon 2 De-methylation (%)” value (p16 exon 2; 500 μM, 24 hrs) was 9 +/− 1%, the “p16 Exon 2 Methylation (%)” value (p16 exon 2; 500 μM, 24 hrs) was 87 +/− 1% and the “Relative p16 Exon 2 De-methylation (%)” value (p16 exon 2; 500 μM, 48 hrs) was 18 +/− 2%. The “p16 Exon 2 Methylation (%)” value (p16 exon 2; 500 μM, 48 hrs) was 79 +/− 2%, the “Relative p16 Exon 2 De-methylation (%)” value (p16 exon 2; 1000 μM, 24 hrs) was 20 +/− 2% and the “p16 Exon 2 Methylation (%)” value (p16 exon 2; 1000 μM, 24 hrs) was 77 +/− 2%. The “Relative p16 Exon 2 De-methylation (%)” value (p16 exon 2; 1000 μM, 48 hrs) was 24 +/− 1%, the “p16 Exon 2 Methylation (%)” value (p16 exon 2; 1000 μM, 48 hrs) was 73 +/− 1% and the “p16 Promoter Methylation (%)” value (p16 promoter; 300 μM, 24 hrs) was 91% and 91 +/− 1%. For the same compound, the “p16 Promoter Methylation (%)” value (p16 promoter; 300 μM, 48 hrs) was 80% and 80 +/− 1%, the “p16 Promoter Methylation (%)” value (p16 promoter; 500 μM, 24 hrs) was 85% and 85 +/− 1% and the “p16 Promoter Methylation (%)” value (p16 promoter; 500 μM, 48 hrs) was 77% and 77 +/− 2%. The “p16 Promoter Methylation (%)” value (p16 promoter; 1000 μM, 24 hrs) was 72% and 72 +/− 2% and the “p16 Promoter Methylation (%)” value (p16 promoter; 1000 μM, 48 hrs) was 68% and 68 +/− 2%.
In the case of `Nc1ncn([C@@H]2O[C@H](CO)[C@@H](O)[C@H]2O)c(=O)n1` [5-Aza-CR, 5-azacytidine, reference compound], the “Toxicity (%) (decrease in plating efficiency)” value (T24 cells; 3 μM, 24 hrs) is reported as 2%, the “Toxicity (%) (decrease in plating efficiency)” value (T24 cells; 10 μM, 24 hrs) is reported as 12% and the “Toxicity (%) (decrease in plating efficiency)” value (T24 cells; 30 μM, 24 hrs) is reported as 30%. The “Toxicity (%) (decrease in plating efficiency)” value (T24 cells; 100 μM, 24 hrs) was 54%, the “Muscle Formation” value (10T1/2 cells [1]; 1 μM) was “++” and the “Muscle Formation” value (10T1/2 cells [1]; 3 μM) was “+++”. The “muscle formation (micrographs, in words)” value (10T1/2 cells [1]) was “formed multinucleated myotubes”, the “Ave. Plating Efficiency (%)” value (10T1/2 cells [2]; 1 μM) was 21% and the “decrease in plating deficiency (cytotoxicity)” value (10T1/2 cells [2]; 3 μM) was 24%. The “Ave. Plating Efficiency (%)” value (10T1/2 cells [2]; 3 μM) was 16%, the cell death observed (10T1/2 cells [2]) was “appreciable cell death” and the “Relative p16 Exon 2 De-methylation (%)” value (p16 exon 2; 3 μM, 24 hrs) was 8 +/− 2%. The “p16 Exon 2 Methylation (%)” value (p16 exon 2; 3 μM, 24 hrs) was 88 +/− 2%, the “Relative p16 Exon 2 De-methylation (%)” value (p16 exon 2; 10 μM, 24 hrs) was 15 +/− 1% and the “p16 Exon 2 Methylation (%)” value (p16 exon 2; 10 μM, 24 hrs) was 82 +/− 1%. The “Relative p16 Exon 2 De-methylation (%)” value (p16 exon 2; 30 μM, 24 hrs) was 25%, the “p16 Exon 2 Methylation (%)” value (p16 exon 2; 30 μM, 24 hrs) was 72 +/− 2% and the “Relative p16 Exon 2 De-methylation (%)” value (p16 exon 2; 100 μM, 24 hrs) was 29%. For the same compound, the “p16 Exon 2 Methylation (%)” value (p16 exon 2; 100 μM, 24 hrs) was 68 +/− 3%, the “p16 Promoter Methylation (%)” value (p16 promoter; 3 μM, 24 hrs) was 91% and 91 +/− 1% and the “p16 Promoter Methylation (%)” value (p16 promoter; 10 μM, 24 hrs) was 83 +/− 2%. For the same compound, the “p16 Promoter Methylation (%)” value (p16 promoter; 30 μM, 24 hrs) was 73 +/− 2% and the “p16 Promoter Methylation (%)” value (p16 promoter; 100 μM, 24 hrs) was 68% and 68 +/− 2%.
